# Reference: patent US20210369681A1, “Identification of PPM1D mutations as a novel biomarker for NAMPTi sensitivity” (YALE UNIVERSITY, priority 2018, published 2021)
# Test system: parental and PPM1Dtrnc. immortalized human astrocytes
# Experiment: not given
# Format: cell-based
# Conditions: not given
# Procedure: (§1) In vitro cellular viability assessments of immortalized human astrocytes, MCF7, and U2OS cell lines were made using a previously described, high-content, microscopy platform developed by our group. In brief, cells were plated in a 96-well plate at a density of 2000 cells/well, and incubated overnight. Drug treatment or vehicle (0.5% DMSO) control was administered, and cells were incubated for 72-96 hours as indicated. Plates were then washed with PBS and fixed with ice-cold 70% ethanol for 2 hours at 4° C. […] Cells were imaged using a Cytation3 imager (BioTek), and images were stitched and analyzed as described above. Viability assessments were made comparing drug treated to vehicle treated conditions. SU-DIPG and HSJD-DIPG-007 spheroid viability was assessed using CytoTox-Glo (Promega), according to the manufacturer's protocols. Spheroids were treated with FK866 for 120 hours before analysis using this method. IC50 calculations were made using GraphPad Prism, by fitting data to an [inhibitor] vs response−variable slope four parameter nonlinear regression (as depicted in the representative figures). siRNA Transfection and Viability Analysis Individual NAPRT targeting siRNAs were ordered from Dharmacon Inc. (Horizon Discovery), with target sequences listed in Table 1. The panel of siRNAs used for synthetic lethal viability screening was hand-selected and ordered from Dharmacon Inc. and were provided in ON-TARGET plus mixtures, each containing up to four unique siRNAs per gene. 2×10^5 astrocytes were reverse-transfected with different siRNAs (200 nM final concentration), using Lipofectamine RNAiMAX (Invitrogen), according to manufacturer's protocols. For individual siRNAs, cells were incubated for 72 hours, pelleted, and lyzed for immunoblotting. For the siRNA screen, cells were incubated for 24 hours and split to different condition plates, where they were incubated for an additional 24 hours. Cells were then treated with the described doses of FK866, and viability was assessed after 72 hours of drug treatment, using the image-based pipeline described above. Viability measurements were made for each siRNA, and normalized to FK866-untreated conditions.
# Given the role of PPM1D in DDR pathways, we performed a small molecule synthetic lethal screen with a panel of inhibitors against key DNA repair and metabolic proteins, using methodology described previously by our group.
row,Structure (SMILES),IC50 ratio (Parental/PPM1Dtrnc.)
1,O=P1(N(CCCl)CCCl)NCCCO1 (stereo not shown) [Cyclophosphamide],0.90

# Same assay, conditions: ratio of IC50 in parental astrocytes to IC50 in PPM1Dtrnc. astrocytes; viability
row,Structure (SMILES),IC50 ratio (Parental/PPM1Dtrnc.)
1,Cc1cc([C@@H](C)Nc2ccccc2C(=O)O)c2nc(N3CCOCC3)cc(=O)n2c1 [AZD6482],1.00
2,NC(=O)Nc1cc(-c2cccc(F)c2)sc1C(=O)N[C@H]1CCCNC1 [AZD7762],0.77
3,C[C@@]1(CO)[C@H](O)CC[C@@]2(C)[C@H]1CC[C@H]1C[C@@H]3C[C@@]12CC[C@]3(O)CO [Aphidicolin],1.75
4,Cn1c(=O)n(-c2ccc(C(C)(C)C#N)cc2)c2c3cc(-c4cnc5ccccc5c4)ccc3ncc21 [BEZ-235],1.01
5,Cn1ncnc1[C@H]1c2n[nH]c(=O)c3cc(F)cc(c23)N[C@@H]1c1ccc(F)cc1 [BMN673],0.99
6,Cn1c(CCCC(=O)O)nc2cc(N(CCCl)CCCl)ccc21 [Bendamustine],1.07
7,C[C@@H](CN1CC(=O)NC(=O)C1)N1CC(=O)NC(=O)C1 [Dexrazoxane],1.17
8,Cn1ncc2c(N3CCOCC3)nc(-c3cccc(O)c3)nc21 [ETP 45658],1.51
9,O=C(O)c1ccc(CN2CCC(CN[C@@H]3C[C@H]3c3ccccc3)CC2)cc1 [G5K2879552],1.00
10,CCc1c2c(nc3ccc(OC(=O)N4CCC(N5CCCCC5)CC4)cc13)-c1cc3c(c(=O)n1C2)COC(=O)[C@]3(O)CC [Irinotecan],1.01
11,CCN1CCN(CC(=O)Nc2ccc(-c3cccc4c(=O)cc(N5CCOCC5)oc34)c3sc4ccccc4c23)CC1 [KU 0060648],0.69
12,O=c1cc(-c2cccc3c2Sc2ccccc2S3)oc(N2CCOCC2)c1 [KU-55933],1.18
13,CC(N[C@H]1C[C@@H]1c1ccccc1)c1ccc2c(c1)OCCO2 (stereo partly shown) [LSD1-C76],0.98
14,O=NN(CCCl)C(=O)NC1CCCCC1 [Lomustine],1.10
15,C=CCn1c(=O)c2cnc(Nc3ccc(N4CCN(C)CC4)cc3)nc2n1-c1cccc(C(C)(C)O)n1 [MK-1775],0.63
16,CN(C)CCCNC(=O)c1ccc(-c2cc(O)c3ncccc3c2)cc1 [MLM324],1.02
17,NS(=O)(=O)OC[C@@H]1C[C@@H](n2ccc3c(N[C@H]4CCc5ccccc54)ncnc32)C[C@@H]1O [MLN4924],0.92
18,CO[C@@]12[C@H](COC(N)=O)C3=C(C(=O)C(C)=C(N)C3=O)N1C[C@@H]1N[C@@H]12 [MMC],1.08
19,COS(C)(=O)=O [MMS],1.28
20,O=c1cc(N2CCOCC2)oc2c(-c3cccc4c3sc3ccccc34)cccc12 [NU-7441],1.26
21,O=C(c1cc(Cc2n[nH]c(=O)c3ccccc23)ccc1F)N1CCN(C(=O)C2CC2)CC1 [Olaparib],1.32
22,Cc1ccc([N+](=O)[O-])cc1S(=O)(=O)N(C)/N=C/c1cnc2ccc(Br)cn12 [PIK 75],0.97
23,OCc1ccc(-c2ccc(-c3ccc(CO)s3)o2)s1 [RITA],1.27
24,C/C(=N\NC(=O)c1cccc(S(=O)(=O)N2CCOCC2)c1)c1cc(Cl)ccc1O [SP2509],1.36
25,CCN1CCN(C(=O)Cc2ccc(Nc3ncc(F)c(Nc4ccc(C(=O)Nc5ccccc5Cl)cc4)n3)cc2)CC1 [TC-S 7010],0.78
26,CNc1cc(-c2cccc(Cl)c2Cl)nc(N)n1 [TH287],1.52
27,Cn1nnc2c(C(N)=O)ncn2c1=O [TMZ],1.37
28,CC[C@@]1(O)C(=O)OCc2c1cc1n(c2=O)Cc2cc3c(CN(C)C)c(O)ccc3nc2-1 [Topotecan],0.99
29,CNCc1ccc(-c2cc(-c3nc(-c4ccc(S(=O)(=O)C(C)C)cc4)cnc3N)on2)cc1 [VE822],0.93

# Test system: PPM1Dtrnc. astrocytes
# Experiment: not given
# Conditions: not given
# Procedure: PPM1D^trnc. astrocytes were treated with 50 µg/mL cycloheximide or 1 μM MG132 (both Sigma) for the indicated amount of time. Cells were then washed, pelleted, and lyzed for subsequent immunoblotting approaches, as described above. Quantification of immunoblot intensity was calculated using ImageJ software, and consisted of multiple (n=3) blots. Irradiation of cells was performed using an X-RAD KV irradiator (Precision X-ray), and treatment consisted of an unfractionated, 10 Gy dose. PPM1D inhibitor treatment with GSK2830371 (Selleckchem), consisted of 50 nM treatment, 24 hours prior to IR. FK866 (Selleckchem), GPP78 (Tocris Bioscience), STF118804 (Tocris Bioscience), STF31 (Tocris Bioscience), 5-azacytidine (Selleckchem), and Decitabine (Selleckchem) were dissolved in DMSO and used for treatment as indicated.
# as §1
row,Structure (SMILES),Effect on the cytotoxicity of FK866
1,"NC(=O)c1ccc[n+]([C@@H]2O[C@H](CO)[C@@H](O)[C@H]2O)c1 [NR, nicotinamide riboside]",completely mitigated

# Same assay, conditions: 72 hr treatment; structurally distinct NAMPT inhibitors
row,Structure (SMILES),NAMPT inhibitor sensitivity of PPM1D mutant astrocytes
1,O=C(CCCCCCCn1cc(-c2cccnc2)nn1)Nc1ccccc1-c1ccccc1 [GPP78],confirmed
2,CC(C)(C)c1ccc(S(=O)(=O)NCc2ccc(C(=O)Nc3cccnc3)cc2)cc1 [STF31],confirmed
3,Cc1ccc(S(=O)(=O)Cc2nc(-c3ccc(C(=O)NCc4cccnc4)cc3)oc2C)cc1 [STF118804],confirmed

# Same assay, conditions: PPM1Dtrnc. cells; 72 hr concurrent treatment with FK866
row,Structure (SMILES),Effect on the cytotoxicity of FK866
1,"NC(=O)c1cccnc1 [NAM, nicotinamide]",strongly antagonized

# Test system: PPM1D (γH2AX foci in parental and PPM1Dtrnc. astrocytes)
# Experiment: γH2AX foci formation after ionizing radiation
# Format: cell-based, human
# Conditions: 10 Gy IR; 50 nM inhibitor 24 hours prior to IR
# Procedure: Astrocyte cell lines were seeded and incubated overnight, before radiation. Plates were then collected at indicated time points, fixed, permeabilized/blocked, and stained with primary and secondary antibodies for fluorescent imaging. […] Cells were subsequently washed in 1×PBS, followed by a joint permeabilization and blocking step in incubation buffer (5% BSA and 0.5% TritonX100, in PBS) for 1 hour. Primary antibody raised against γH2AX […] (Millipore 05-636) was added at a dilution of 1:1000 in incubation buffer, and incubated overnight at 4° C. Plates were washed, followed by a 1 hour RT incubation with alexafluor-conjugated secondary antibodies (ThermoFisher A21425 or A11029, 1:10,000) and a nuclear dye, […] Hoechst 33342 (Sigma), in secondary buffer (0.5% TritonX100, in PBS). Plates were again washed, and imaged in PBS using the Cytation3 imaging system (BioTek). Images were stitched using Gen5 v2.09 software (BioTek), and both foci and cell numbers were counted using CellProfiler image processing software.
row,Structure (SMILES),Differences in γH2AX foci between parental and PPM1Dtrnc. astrocytes after IR
1,Cc1ncc(Cl)cc1NCc1ccc(C(=O)N[C@@H](CC2CCCC2)C(=O)NC2CC2)s1 [GSK2830371],abolished

# Test system: NAD and NADP levels in WT and PPM1Dtrnc. astrocytes
# Experiment: NAD / NADP quantification in astrocytes
# Format: cell-based, human
# Conditions: PPM1Dtrnc. astrocytes; exogenous NR (50 μM, 24 hrs)
# Procedure: The NAD metabolome was quantitatively analyzed using LC-MS/MS, using two separations on Hypercarb and 13C metabolite standards. Subsequent NAD level analyses were performed using a NAD/NADH Quantification kit (Sigma), as per the manufacturer's specifications. Me/hME-DIP, Bisulfite Conversion, and Global 5-hmC Detection Genomic DNA was purified using the Wizard Genomic DNA purification kit (Promega), and subsequently immunoprecipitated or bisulfite-converted. […] Immunoprecipitated DNA was extracted with phenol/chloroform and analyzed using quantitative PCR (qPCR), as described below. Bisulfite conversion was performed via EpiMark Bisulfite Conversion kit (NEB). Modified DNA was then amplified using EpiMark Hot Start Taq DNA polymerase (NEB), with primers listed in Table 1, and purified with a PCR purification kit (Qiagen). Methylation was then assessed through Sanger-sequencing of the NAPRT promoter. Global 5-hydroxymethylcytosine levels were assessed via the Global 5-hmC quantification kit (Active Motif), according to manufacturer's protocols. Quantitative PCR (qPCR) mRNA transcripts were purified from cells using a RNAeasy kit (Qiagen) and subsequently reverse transcribed using a High Capacity cDNA reverse transcription kit (Applied Biosystems). PPM1D and NAPRT gene expression levels were assessed through qPCR with TaqMan fluorescent probes (all from Applied Biosystems): PPM1D (4331182), NAPRT (4351372), and Actin (4333762F), according to manufacturer's protocol. Expression level fold change was calculated via ΔΔCt comparison, using Actin as a reference gene. The NAPRT promoter region was quantitated via qPCR using Fast Start Universal SYBR Green Master with ROX (Roche), and primers listed in Table 1. All qPCR reactions were run on a StepOnePlus Real Time PCR system (Applied Biosystems).
row,Structure (SMILES),Basal NAD levels
1,"NC(=O)c1ccc[n+]([C@@H]2O[C@H](CO)[C@@H](O)[C@H]2O)c1 [NR, nicotinamide riboside]",sufficiently increased
